This note sets out measurements from publication PMC12530843, “Identification of a New Interesting BAG3 Modulator Able to Disrupt Cancer‐Related Pathways” (Chemmedchem, 2025).

SMILES strings stand for the structures. Like-named read-outs stand apart in the source and are kept apart here.

Data set [1] has as its target T1, BAG3-BD (Homo sapiens, UniProt O95817).
T1 construct: the BAG3 domain (BAG3‐BD) was sourced from ARETA International S.r.l; (Gerenzano, Italy); purchased ARETA International S.r.l
T1 sequence (O95817 421-498 limits assumed): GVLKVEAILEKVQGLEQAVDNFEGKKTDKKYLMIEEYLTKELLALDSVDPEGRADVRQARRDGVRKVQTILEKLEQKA
Briefly: SPR binding on BAG3 BAG domain. As to conditions: Biacore T200, 25 °C, 1:1 model; for Kd: read-out: BAG3–BD KD ± SD. The procedure: (§1) Recombinant human BAG3 protein (Bcl2‐associated athanogene 3) was obtained from Novus Biologicals (Littleton, Colorado), while the BAG3 domain (BAG3‐BD) was sourced from ARETA International S.r.l. (Gerenzano, Italy). We used (Z)‐ethyl 2‐(5‐(3,4‐dihydroxybenzylidene)‐2,4‐dioxothiazolidin‐3‐yl)acetate (LK4), a BAG3 inhibitor previously identified by our group.^[ [13] ^] SPR spectroscopy was performed using a Biacore T200 optical biosensor with CM5 sensor chips (Cytiva, Marlborough, USA) to assess the affinity of synthesized molecules for BAG3 and BAG‐BD. BAG3 and BAG‐BD were immobilized on CM5 sensor chip using standard amine‐coupling protocol.^[ [15] ^, [42] ^, [43] ^] BAG3 protein (0.067 μg μL^−1 in 10 mM CH3COONa, pH 4.5) was immobilized at a flow rate of 10 μL min^−1, achieving a surface density of 14 kRU, while BAG3‐BD (0.38 μg μL^−1 in 10 mM CH3COONa, pH 4.5) reached a density of 4 kRU. For the experiments, BAG3 and BAG‐BD surfaces, as well as an unmodified reference surface, were prepared for simultaneous analysis. Compounds 1–10 and LK4 were initially dissolved to 10 mM in 100% DMSO, then diluted 1:20 (v/v) in PBS‐P buffer (0.2 M phosphate buffer, 27 mM KCl, 1.37 M NaCl, 0.5% surfactant P20) resulting in a final DMSO concentration of 5.0%. The compounds were injected in a concentration series (1:2 dilution, 10 different concentrations) ranging from 0 to 100 μM, using 96‐well plates. SPR experiments were conducted at 25 °C with a flow rate of 20 μL min^−1, featuring a 90 s association phase followed by a 400 s dissociation phase. Changes in mass, recorded as resonance units (RU), were used to quantify binding responses, while K D values were determined using Biaevaluation software by globally fitting the double‐referenced association and dissociation data to a 1:1 interaction model. (See Figure S43–S56, Supporting Information).
For orientation: Surface plasmon resonance follows binding to a sensor surface in real time, without labels.

Data set [2] deals with HeLa cells. Briefly: MTT cell viability, HeLa. The format is cell-based. The procedure:
(§2) Human cell lines of lung adenocarcinoma (A549), cervical carcinoma (HeLa), malignant melanoma (A375), breast adenocarcinoma (MCF7), and immortalized human keratinocytes (HaCaT) were cultured in high‐glucose DMEM supplemented with FBS (10%, v/v), glutamine (2 mM L^−1), penicillin (100 U mL^−1), and streptomycin ([…]). Cells were maintained at 37 °C in a humidified 5% CO2 atmosphere and subcultured every 2 days to maintain logarithmic growth. The human cell lines were kindly donated by Prof. Ornella Moltedo, Department of Pharmacy, University of Salerno.^[ [15] ^, [44] ^]
Cell viability was evaluated using a colorimetric assay to measure mitochondrial metabolic activity through the reduction of 3‐[4,5‐dimethylthiazol‐2,5‐diphenyl‐2H‐tetrazolium bromide (MTT) to purple formazan. Stock solutions of SP18 and compounds 1, 2, 5–8 (50 mM in DMSO) were stored at −20 °C in the dark and diluted immediately before addition to the sterile culture medium. The final concentration of DMSO for the tested compounds was 0.1%, which was consistent with the percentage of DMSO used in the negative control. A549 (3.5 × 10³ cells well^−1), HeLa (3.5 × 10³ cells well^−1), A375 (5.0 × 10³ cells well^−1), and MCF7 (3.5 × 10³ cells well^−1) cells were seeded in triplicate in 96‐well plates. After 24 h to allow for attachment, cells were treated with various concentrations of the compounds (10 and 50 µM), using 0.1% (v/v) DMSO as a negative control and 10% (v/v) DMSO as a positive control following treatment, 20 μL of MTT solution (5 mg mL^−1 in PBS) were added to each well, and cells were incubated for 3 h at 37 °C. Formazan crystals were then dissolved in 100 μL of a buffer containing 50% (v/v) N,N‐dimethylformamide and 20% SDS (pH 4.5), and absorbance was measured at 570 nm using a Multiskan GO Microplate Spectrophotometer (Thermo Fisher Scientific, USA).^[ [44] ^] […] IC50 values, defined as the concentration causing 50% inhibition of cell survival, were calculated and compared to DMSO‐treated controls using GraphPad Prism 8.0 software via nonlinear regression. IC50 values for SP18 and compound 2 were also determined in HaCaT cells (5.0 × 10³ cells well^−1) after 48 or 72 h of treatment.^[ [15] ^]

Data set [3] addresses T2, BAG3 full length (Homo sapiens, UniProt O95817).
T2 construct: purchased Novus Biologicals (Littleton, Colorado)
Briefly: SPR binding on full-length BAG3. As to conditions: Biacore T200, 25 °C, 1:1 model; for Kd: read-out: BAG3 FULL KD ± SD. The procedure:
as §1

The subject of data set [4] is HaCaT cells. The data set is described as follows: MTT cell viability, HaCaT healthy keratinocytes. The format is cell-based, human. The procedure: as §2
Cell viability was evaluated using a colorimetric assay to measure mitochondrial metabolic activity through the reduction of 3‐[4,5‐dimethylthiazol‐2,5‐diphenyl‐2H‐tetrazolium bromide (MTT) to purple formazan. Stock solutions of SP18 and compounds 1, 2, 5–8 (50 mM in DMSO) were stored at −20 °C in the dark and diluted immediately before addition to the sterile culture medium. The final concentration of DMSO for the tested compounds was 0.1%, which was consistent with the percentage of DMSO used in the negative control. […] Formazan crystals were then dissolved in 100 μL of a buffer containing 50% (v/v) N,N‐dimethylformamide and 20% SDS (pH 4.5), and absorbance was measured at 570 nm using a Multiskan GO Microplate Spectrophotometer (Thermo Fisher Scientific, USA).^[ [44] ^] […]

Data set [5] relates to HeLa cells. Briefly: Cell cycle / hypodiploid nuclei by PI flow cytometry. It counts as cell-based, human. The procedure:
Hypodiploid nuclei were analyzed by propidium iodide (PI) staining using flow cytometry. HeLa cells (1 × 10^5 cells well^−1) were cultured in 12‐well plates and allowed to adhere for 24 h. The medium was then refreshed, and cells were treated with SP18 (0.75, 1.5, 3, 6, and 12 µM) for 48 h or compound 2 (10, 30, and 50 µM) for 72 h, with 0.1% (v/v) DMSO as a control. The final concentration of DMSO for the tested compounds was 0.1%, which is consistent with the percentage of DMSO used in the negative control. Following treatment, the culture medium was replaced, and cells were washed twice with PBS before being resuspended in 500 μL of a solution containing 50 mg L^−1 PI, 0.1% (w/v) sodium citrate, and 0.1% Triton X‐100. To include both dead and live cells in the analysis, the culture medium and PBS washes were centrifuged, and the resulting cell pellets were combined with the main cell suspension. Cells were then incubated at 4 °C for 30 min in the dark, and nuclei were analyzed using a Becton Dickinson FACScan flow cytometer (Franklin Lakes, USA) with Cell Quest software. DNA content was recorded, and cellular debris was excluded by adjusting the forward scatter threshold. The percentage of cells in the hypodiploid region (sub‐G0) and those in the G1, S, and G2 phases were calculated.^[ [45] ^] (See Figure S57–S58, Supporting Information).
Background: Flow cytometry measures light scatter and fluorescence of single cells or particles in a stream.

As usually defined, the Kd is the concentration at which binding is half-saturated. A word on the mortality: it is the percentage killed. The low end stands for a weak lethal effect, the high end for a strong lethal effect. Usually IC50 stands for the concentration that gives 50% inhibition.

T2 sequence (O95817 whole entry): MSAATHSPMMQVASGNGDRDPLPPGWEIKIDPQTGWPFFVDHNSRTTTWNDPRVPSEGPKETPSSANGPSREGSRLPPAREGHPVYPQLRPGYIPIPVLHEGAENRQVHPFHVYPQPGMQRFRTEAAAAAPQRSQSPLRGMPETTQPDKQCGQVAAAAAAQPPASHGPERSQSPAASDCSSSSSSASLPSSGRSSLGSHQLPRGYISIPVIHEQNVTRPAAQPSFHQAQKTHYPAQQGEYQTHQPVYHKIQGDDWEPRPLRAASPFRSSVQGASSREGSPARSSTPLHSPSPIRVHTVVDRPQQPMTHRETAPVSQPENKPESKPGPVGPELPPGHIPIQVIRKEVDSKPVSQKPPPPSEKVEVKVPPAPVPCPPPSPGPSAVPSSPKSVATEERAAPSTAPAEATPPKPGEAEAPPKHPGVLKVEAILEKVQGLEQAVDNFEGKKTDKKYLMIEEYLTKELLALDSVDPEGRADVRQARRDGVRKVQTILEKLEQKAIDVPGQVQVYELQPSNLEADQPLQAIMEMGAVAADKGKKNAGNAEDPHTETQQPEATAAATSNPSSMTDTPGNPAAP

Take `O=C(OCc1cn(Cc2ccc3c(c2)C(=O)c2ccccc2C3=O)nn1)c1cccc([N+](=O)[O-])c1` [Compound 2, (1‐((9,10‐Dioxo‐9,10‐dihydroanthracen‐2‐yl)methyl)‐1H‐1,2,3‐triazol‐4‐yl)methyl 3‐nitrobenzoate]: in data set [1], the “BAG3–BD KD ± SD” value was “low micromolar range” and the Kd came to 0.38 ± 0.05 µM. The mortality at 50 µM in data set [2] (Homo sapiens, HeLa, 50 µM, 72 h) was about 70%. Besides, the IC50 in data set [2] (Homo sapiens, HeLa, 72 h of exposure, read-out: IC50 on HeLa cells) worked out at 40.8 ± 5.5 µM. For the same compound, in data set [3], the “BAG3 FULL KD ± SD” value was “low micromolar range” and the Kd was determined as 1.04 ± 0.03 µM. Also, the “cytotoxicity on healthy HaCaT cells” value in data set [4] (72 h, up to 70 µM (highest concentration tested)) is “no significant cytotoxicity”. Further, the “effect on cell cycle / hypodiploid nuclei” value in data set [5] (72 h, 10, 30 and 50 µM) was “induces hypodiploid nuclei formation in a concentration‐dependent manner”.
On to `O=C(OCc1cn(Cc2ccc(C(=O)c3ccccc3)cc2)nn1)c1cccc([N+](=O)[O-])c1` [SP18], for which the Kd in data set [1] turned out to be 43.5 ± 5.09 µM; in data set [3], 36 ± 0.85 µM. Further, the “cytotoxicity against HeLa cells (screen)” value in data set [2] (10 and 50 µM, 72 h) is reported as “significant cytotoxicity”. The IC50 turned out to be 14.8 ± 1.34 µM in data set [2] (Homo sapiens, HeLa, 48 h of treatment, read-out: IC50 against HeLa) and 22.1 ± 0.67 µM in data set [4] (Homo sapiens, HaCaT, 48 h, seven concentrations, MTT). For the same compound, in data set [5] (48 h, 0.75 to 12 µM), the “effect on cell cycle / hypodiploid nuclei” value was “induces hypodiploid nuclei formation in a concentration‐dependent manner and causes an S‐phase block”.
